Where no end group is shown, it is not given here.
Legend:
[1] = tested on: human colonic Caco2 (C2) cell monolayers; assay: Tight junction recovery after low-calcium disruption, ZO-1 confocal microscopy; type: cell-based; details: low-calcium medium (3 μM) 1 hour, assessed 2 hours after addition; AMP peptide 8 μg/ml, KGF-1 100 ng/ml, EGF 100 ng/ml
Experimental: The AMP77-97 peptide prevented decreases in TJ proteins and epithelial integrity seen after treatment of human colonic Caco2 (C2) cell monolayers with the oxidant monochloramine, which disrupts intercellular junctions (FIG. 2; C,D). These cells were exposed to low-calcium medium (3 μM) for 1 hr to disrupt TJs, and then allowed to recover in medium containing AMP77-97 peptide, epidermal growth factor (EGF) or keratinocyte growth factor (KGF-1) which are known epithelial cell mitogens that might facilitate recovery of disrupted TJs. […] At the molecular level, AMP77-97 peptide facilitates the formation of TJs by enhancing translocation of several proteins (protein kinase C-zeta, Par6, Cdc42, ECT2 and Par3) from the cytosol into TJ domains.
Localization of the tight junction protein ZO-1 was monitored by indirect immunofluorescence laser scanning confocal microscopy in confluent monolayers of C2 cells. […] To disrupt tight junctions, cells were switched to low-calcium medium (3 μM) for 1 hour. Then a growth factor at a known mitogenic concentration was added to the medium, and 2 hours later its effect on tight junction formation was assessed by confocal microscopy. Vehicle, AMP peptide (8 μg/ml), KGF-1 (100 ng/ml), and EGF (100 ng/ml) were compared.

[2] = tested on: BDF-1, C3H/OuJ, C3H/HeN, C57Bl/6 and Balb c mice; assay: Study 2: thickening of oral epithelium in five mouse strains; type: in vivo; details: Study 2, five mouse strains
Text: In Study 2, the effect of AMP77-97 peptide on thickening in the oral epithelium was compared in five different strains of mice. […] Hyperkeratosis was again observed in the esophagus of BDF-1 mice, and was also seen in C3H/HeN mice.

BDF-1 mice [3] = details: mouse, in vivo
Experimental: AMP77-97 peptide (25 mg/kg, s.c.) was administered 5 days before and 10 days after radiation of the tongue in the BDF-1 mouse model of oral mucositis. Photomicrographs were prepared 10 days after radiation. Tissue from control irradiated mice treated with vehicle (saline) show substantial epithelial and connective tissue cell loss in both compartments compared to normal mouse tongue.
In Study 3, mucositis was induced in BDF-1 mice (n=40) by administering a single dose of radiation of 30 Gy to the snout. To evaluate the effect of AMP77-97 peptide in this setting of radiation-induced injury of the epithelial and connective tissue compartments of the tongue, mouse AMP77-97 peptide (25 mg/kg) was administered once daily subcutaneously before and after radiation (days −5 to 10; radiation on day 0). […] The evaluation was performed on day 10 when mucositis injury is at its peak. This effect on connective tissue supported that AMP77-97 peptide has beneficial effects on multiple cell and tissue types damaged by radiation.

hamster cheek pouch = assay: Study 6: radiation-induced cheek pouch mucositis, topical dosing; type: in vivo; details: each of the hamster cheek pouch studies and the mouse model
Experimental: In a separate test of efficacy (Study 6), AMP77-97 peptide was administered topically into the hamster cheek pouch (n=32). Doses of 0.5, 5 or 50 mg/kg AMP77-97 peptide in PBS were placed in the pouch three times daily from days −5 to −1 before radiation and 1 to 15 after radiation.
Acute Radiation-induced Mucositis. Oral mucositis was induced in hamsters by administering a single dose of radiation of 40 Gy. On day 0, under anesthesia (intraperitoneal injection of ketamine [160 mg/kg] and xylazine [8 mg/kg]), the left buccal pouch was everted, fixed, and radiated while the rest of the animal was shielded with lead cover. Radiation was generated using a 160-kV potential (18.75-ma) source at a focal distance of about 21 cm, hardened with a 3-mm Al filtration system. Ionizing radiation was targeted at the left buccal pouch mucosa at a rate of 1.32 Gy/minute.
Mucositis Evaluation: The progression of mucositis was monitored daily for both models. Every other day starting on day 6 postirradiation, animals were anesthetized using inhalation anesthesia, and the left buccal pouch was everted and photographed. At the conclusion of the study's clinical phase, film was developed, and resulting photos were randomly numbered and then scored in blinded fashion by two observers. […] Severity of oral mucositis (OM) was calculated using the scores per treatment group on each observation day (mean±SE). […]

BDF-1 mice [4] = assay: Study 1: epithelial thickening of oral mucosal surfaces in mice; type: in vivo; details: Study 1, mice
Experimental: (§1) The capacity of the AMP77-97 peptide to induce epithelial thickening of oral mucosal surfaces in mice and hamsters was studied to determine if these animals could be used to evaluate the potential of AMP77-97 peptide in the treatment of oral mucositis. In Study 1, female BDF-1 mice (n=8) and Syrian golden hamsters (n=8) were given daily subcutaneous injections of saline, mouse AMP77-97 peptide at 5 mg/kg, or 25 mg/kg for five days. […] There also appeared to be an increase in both hyperplasia and hyperkeratosis with increasing dose (more prevalent/pronounced in the animals receiving 25 mg/kg than those receiving 5 mg/kg) and duration of dosing (there were some effects seen at 2 days, but were more readily seen after 5 consecutive days). The effect was more easily observed on the dorsal than the ventral surface of the tongue.

Syrian golden hamsters = assay: Study 1: epithelial thickening of oral mucosal surfaces in hamsters; type: in vivo, hamster; details: Study 1, hamsters
Experimental: as §1

Row | Substance | formation of new tight junctions / localization of ZO-1 [1] | toxicity (weight gain, mortality) [2] | toxicity (BDF-1 mice [3]) | toxicity as measured by weight loss or mortality (hamster cheek pouch) | toxicity (weight gain, mortality) (BDF-1 mice [4]) | toxicity (weight gain, mortality) (Syrian golden hamsters)
1 | EGF: epidermal growth factor, known epithelial cell mitogen [reference compound] | persistent separation of cells with TJ disruption and apparent loss of ZO-1 | – | – | – | – | –
2 | LDALVKEKKLQGKGPGGPPPK [AMP77-97 peptide] | – | no evidence of any toxicity | no evidence of any toxicity | no signs of toxicity | no evidence of any toxicity | no evidence of any toxicity
